Assay results taken from ChEMBL document CHEMBL5579794, “Improved synthesis and evaluation of preclinical pharmacodynamic parameters of a new monocyclic β-lactam DPI-2016” (Bioorg Med Chem Lett, 2024).

Tests used:
[1] = Stability in rat liver microsomes at 0.2 mg/ml measured up to 60 mins in presence of NADPH by LC-MS/MS analysis; format: ADME, Microsome; conditions: 1 h
[2] = Stability in mouse liver microsomes at 0.2 mg/ml measured up to 60 mins in presence of NADPH by LC-MS/MS analysis; format: ADME, Microsome; conditions: 1 h
[3] = Stability in dog liver microsomes at 0.2 mg/ml measured up to 60 mins in presence of NADPH by LC-MS/MS analysis; format: ADME, Canis lupus familiaris, Microsome; conditions: 1 h
[4] = Stability in monkey liver microsomes at 0.2 mg/ml measured up to 60 mins in presence of NADPH by LC-MS/MS analysis; format: ADME, Macaca mulatta, Microsome; conditions: rhesus monkey, 1 h
[5] = Stability in human liver microsomes at 0.2 mg/ml measured up to 60 mins in presence of NADPH by LC-MS/MS analysis; format: ADME, Microsome; conditions: 1 h
[6] = Stability in human plasma at 1 uM measured upto 120 mins by LC-MS/MS analysis; format: ADME, cell-free; conditions: 2 h
[7] = Stability in dog plasma at 1 uM measured upto 120 mins by LC-MS/MS analysis; format: ADME, cell-free, Canis lupus familiaris; conditions: 2 h
[8] = Stability in monkey plasma at 1 uM measured upto 120 mins by LC-MS/MS analysis; format: ADME, cell-free, Macaca mulatta; conditions: rhesus monkey, 2 h
[9] = Stability in rat plasma at 1 uM measured upto 120 mins by LC-MS/MS analysis; format: ADME, cell-free; conditions: 2 h
[10] = Stability in mouse plasma at 1 uM measured upto 120 mins by LC-MS/MS analysis; format: ADME, cell-free; conditions: 2 h
[11] = Plasma protein binding in human at 1 uM incubated for 6 hrs by LC-MS/MS analysis; format: ADME, cell-free; conditions: read-out: PPB (converted)
[12] = Plasma protein binding in rat at 1 uM incubated for 6 hrs by LC-MS/MS analysis; format: ADME, cell-free; conditions: read-out: PPB (converted)

Cc1ncc2n1-c1ccc(Cl)cc1C(c1ccccc1F)=NC2 [MIDAZOLAM]
Unstable: Stability [1] | Stability [2] | Stability [3] | Stability [4] | Stability [5]

CC(C)[N+](C)(CCOC(=O)C1c2ccccc2Oc2ccccc21)C(C)C [PROPANTHELINE]
Unstable: Stability [6] | Stability [7] | Stability [8] | Stability [9] | Stability [10]

CC(=O)Nc1ccc(O)cc1 [ACETAMINOPHEN]
0.741: fraction unbound at 6 h, 1 µM [11]
0.526: fraction unbound at 6 h, 1 µM [12]
